{"source": "paper PMC11768370", "about": "“Etodolac Single Dose Metabolic Profile Elucidation: Pharmacokinetics and Adverse Events in Healthy Volunteers” (Pharmaceuticals, 2025)", "key": {"[1]": {"assay": "Etodolac pharmacokinetic profile after a single dose, plasma LC-MS/MS, non-compartmental", "assay_type": "in vivo, human", "experimental": "The analytical method used to calculate the pharmacokinetic parameters was validated according to Resolution No. 27/2012 of the Agência Nacional de Vigilância Sanitária (ANVISA). In this study, an LC-MS/MS system was used to quantify ETO. Chromatographic separations were performed using an LC-20AD analytical pump (Shimadzu, Kyoto, Japan) and a SIL-20A HT autosampler (Shimadzu, Kyoto, Japan), coupled to a Quattro Micro (Micromass, Newcastle, UK) system for triple quadrupole mass spectrometry analyses with an electrospray ionization (ESI) source (Waters, Newcastle, UK). The targeted analysis for ETO was detected by a multiple reaction monitoring (MRM) transition of 286 > 242, and mefenamic acid (Internal Standard) was detected by an MRM transition of 240 > 196 in negative acquisition mode. Data were collected using MassLynx 4.1 (Waters, Newcastle, UK). Further information on the validation method can be found in Supplementary Materials and Methods. WinNonLin 8.3 software (Pharsight, New Jersey, USA) was used to calculate pharmacokinetic parameters using non-compartmental statistics. […]\nTable S3. Pharmacokinetics parameters. Pharmacokinetics parameters were calculated for each participant using the concentration across time data. […]\n1. Volunteers and Study Design\nThe present study was nested in a single-dose, open-label, randomized pharmaco-bioequivalence study performed under biosafety and ethical standards. The reference formulation was an etodolac controlled-release coated tablet of 500 mg Flancox® with the administration of one single-dose tablet.\nThe volunteers were hospitalized at 7:00 p.m. and had supper before 9:00 p.m. After an overnight fast, a speciﬁc high-calorie diet was administered 30 minutes before taking the medication. They received (at ∼7:00 a.m.) a tablet of 500 mg of etodolac with 200 mL of water. Lunch: 4 hours after taking the medication. Afternoon snack: 8 hours after taking the medication. Dinner: 10 hours after […]\nAt 2 h before and 6, 8, and 12 h after the dose administration, vital signs were checked. The […] period was 24 h, during which period, blood samples (5 mL) from a suitable antecubital vein were collected, post-dosing via an indwelling catheter, into ethylenediaminetetraacetic acid […]\nfor 10 min at 4°C, and the plasma was stored at -70°C until assayed. Samples were handled under yellow light due to the photosensitivity of the drug.\n2. Determination of Pharmacokinetic Proﬁle by LC-MS/MS\nChromatographic separations were performed in an LC-20AD analytical pump and SIL-20A HT autosampler from Shimadzu. The stationary phase employed an Agilent Polaris 5 µm C18-A 50 x […]\n2,0mm column (Phenomenex). The mobile phase consisted of a solution of acetonitrile and 5 mM ammonium acetate, ﬂowing at 0.3 mL/min in proportion (8:2). The autosampler was maintained at 22°C, with an injection volume of 5 µl and 2.5-minute duration. Mass spectrometry was conducted on a Quattro Micro mass spectrometer from Micromass, equipped with an electrospray ionization (ESI) source. While operating in negative ionization mode with nitrogen as the desolvation gas, ESI source parameters were set as follows: source temperature of 100°C, desolvation temperature of 450°C, desolvation ﬂow of 800 L h-1, and capillary voltage of 3,50 kV. Etodolac was detected by a multiple reaction monitoring (MRM) transition of 286 > 242 using a cone voltage of 30 eV, and mefenamic acid was detected by an MRM transition of 240 > 196 using a cone voltage of 30 eV. Data was acquired using MassLynx 4.1.\n2.1. Preparation of Standards and Quality Controls\nEtodolac stock solution (108.5 µg/mL) was prepared in methanol and diluted with H2O to obtain the corrected stock solution (100 µg/mL) for the spiking calibration curve and quality controls (QC) samples. QC samples were prepared in the following levels: low, 0,6 µg/mL (LQC); medium, 50 µg/mL (MQC); high, 75 ug/mL (HQC); and a dilution, 42.5 µg/mL (DQC), calculated by taking the […]"}, "[2]": {"assay": "Adverse events monitoring by clinical evaluation and laboratory tests after single dose"}, "[3]": {"parameters": "method as in PMID 36959150", "conditions": "cited from earlier work"}, "[4]": {"conditions": "Maximum of 37 participants, single dose 500 mg"}, "[5]": {"conditions": "Minimum of 37 participants, single dose 500 mg"}, "[6]": {"conditions": "individual participants P1-P37, single dose 500 mg"}, "[7]": {"conditions": "37 healthy volunteers, single dose 500 mg"}, "[8]": {"conditions": "Adverse event: Alanine Aminotransferase Increased"}, "[9]": {"conditions": "Adverse event: Alkaline Phosphatase Increased"}, "[10]": {"conditions": "Adverse event: Altered Erythrogram"}, "[11]": {"conditions": "Adverse event: Altered Leukogram"}, "[12]": {"conditions": "Adverse event: Decreased Platelet Count"}, "[13]": {"conditions": "Adverse event: Fastting Glucose Increased"}, "[14]": {"conditions": "Adverse event: Increased Total Bilirubin and Fractions"}, "[15]": {"conditions": "Adverse event: Total Cholesterol Increased"}}, "note": "Values joined by “and” are separate entries in the source; they are usually repeats but may differ in a detail not shown here. Equal entries are not always repeated. Where two headings read alike, the source gives them in different places.", "data": [{"smiles": "CCc1cccc2c3c([nH]c12)C(CC)(CC(=O)O)OCC3", "note": "(stereo not drawn) [Etodolac]", "values": [{"measurement": "AUC0-t", "setting": "[1]; [4]", "value": 480.52, "unit": "µg·h/mL"}, {"measurement": "Cmax", "setting": "[1]; [4]", "value": 59070, "unit": "ng/mL"}, {"measurement": "Kel", "setting": "[1]; [4]", "value": 0.15, "unit": "h⁻¹"}, {"measurement": "T1/2", "setting": "[1]; [4]", "value": 20.09, "unit": "h"}, {"measurement": "Tmax", "setting": "[1]; [4]", "value": 5.00, "unit": "h"}, {"measurement": "AUC0-t", "setting": "[1]; [5]", "value": 94.14, "unit": "µg·h/mL"}, {"measurement": "Cmax", "setting": "[1]; [5]", "value": 18690, "unit": "ng/mL"}, {"measurement": "Kel", "setting": "[1]; [5]", "value": 0.035, "unit": "h⁻¹"}, {"measurement": "T1/2", "setting": "[1]; [5]", "value": 4.76, "unit": "h"}, {"measurement": "Tmax", "setting": "[1]; [5]", "value": 0.75, "unit": "h"}, {"measurement": "AUC0-t", "setting": "[1]; both sexes, human, oral, 500 mg, Mean of 37 participants, single dose 500 mg, read-out: AUC0-t", "value": 203, "unit": "µg·h/mL"}, {"measurement": "Cmax", "setting": "[1]; both sexes, human, oral, 500 mg, Mean of 37 participants, single dose 500 mg, read-out: Cmax", "value": 35500, "unit": "ng/mL"}, {"measurement": "k el", "setting": "[1]; both sexes, human, oral, 500 mg, Mean of 37 participants, single dose 500 mg, read-out: Kel (converted)", "value": "2.5e-05", "unit": "s⁻¹"}, {"measurement": "half-life", "setting": "[1]; both sexes, human, oral, 500 mg, Mean of 37 participants, single dose 500 mg, read-out: T1/2 (converted)", "value": 8.2, "unit": "h"}, {"measurement": "Tmax", "setting": "[1]; both sexes, human, oral, 500 mg, Mean of 37 participants, single dose 500 mg, read-out: Tmax", "value": 2.24, "unit": "h"}, {"measurement": "k el", "setting": "[1]; both sexes, human, oral, 500 mg, overall mean (SD), 37 healthy volunteers, single dose Flancox 500 mg tablet after high-calorie diet, read-out: elimination rate constant (Kel) (converted)", "value": "2.5e-05", "unit": "s⁻¹"}, {"measurement": "half-life", "setting": "[1]; both sexes, human, oral, 500 mg, overall mean (SD), 37 healthy volunteers, single dose Flancox 500 mg tablet after high-calorie diet, read-out: half-life (T1/2) (converted)", "value": 8.2, "unit": "h"}, {"measurement": "Cmax", "setting": "[1]; both sexes, human, oral, 500 mg, overall mean (SD), 37 healthy volunteers, single dose Flancox 500 mg tablet after high-calorie diet, read-out: maximum concentration (Cmax)", "value": 35500, "unit": "ng/mL"}, {"measurement": "Tmax", "setting": "[1]; both sexes, human, oral, 500 mg, overall mean (SD), 37 healthy volunteers, single dose Flancox 500 mg tablet after high-calorie diet, read-out: time to maximum concentration (Tmax)", "value": 2.24, "unit": "h"}, {"measurement": "AUC0-t", "setting": "[1]; both sexes, human, oral, overall mean (SD), 37 healthy volunteers, single dose Flancox 500 mg tablet after high-calorie diet, read-out: area under the curve from time zero to time t (AUC0-t)", "value": 203, "unit": "µg·h/mL"}, {"measurement": "Cmax", "setting": "[1]; [6]", "value": 45680, "unit": "ng/mL"}, {"measurement": "Tmax", "setting": "[1]; [6]", "value": "2.25 h and 2.75 h and 1.50 h and 3.00 h and 1.25 h and 3.67 h and 4.00 h and 3.33 h and 2.50 h and 1.00 h and 2.00 h and 1.75 h and 5.00 h and 0.75 h"}, {"measurement": "adverse events: intensity (all events)", "setting": "[2]; [7]", "value": "mild"}, {"measurement": "adverse events: predictability (all events)", "setting": "[2]; [7]", "value": "not expected"}, {"measurement": "adverse events recorded (total)", "setting": "[2]; 37 healthy volunteers, single dose 500 mg, results outside reference values", "value": 19}, {"measurement": "Intensity (Mild / Moderate / Severe / Lethal)", "setting": "[2]; [8]", "value": "Mild"}, {"measurement": "Predictability (Expected / Not Expected)", "setting": "[2]; [8]", "value": "Not Expected"}, {"measurement": "Events count", "setting": "[2]; Adverse event: Alanine Aminotransferase Increased, 37 healthy volunteers, single dose 500 mg", "value": 3}, {"measurement": "Intensity (Mild / Moderate / Severe / Lethal)", "setting": "[2]; [9]", "value": "Mild"}, {"measurement": "Predictability (Expected / Not Expected)", "setting": "[2]; [9]", "value": "Not Expected"}, {"measurement": "Events count", "setting": "[2]; Adverse event: Alkaline Phosphatase Increased, 37 healthy volunteers, single dose 500 mg", "value": 1}, {"measurement": "Intensity (Mild / Moderate / Severe / Lethal)", "setting": "[2]; [10]", "value": "Mild"}, {"measurement": "Predictability (Expected / Not Expected)", "setting": "[2]; [10]", "value": "Not Expected"}, {"measurement": "Events count", "setting": "[2]; Adverse event: Altered Erythrogram, 37 healthy volunteers, single dose 500 mg", "value": 3}, {"measurement": "Intensity (Mild / Moderate / Severe / Lethal)", "setting": "[2]; [11]", "value": "Mild"}, {"measurement": "Predictability (Expected / Not Expected)", "setting": "[2]; [11]", "value": "Not Expected"}, {"measurement": "Events count", "setting": "[2]; Adverse event: Altered Leukogram, 37 healthy volunteers, single dose 500 mg", "value": 3}, {"measurement": "Intensity (Mild / Moderate / Severe / Lethal)", "setting": "[2]; [12]", "value": "Mild"}, {"measurement": "Predictability (Expected / Not Expected)", "setting": "[2]; [12]", "value": "Not Expected"}, {"measurement": "Events count", "setting": "[2]; Adverse event: Decreased Platelet Count, 37 healthy volunteers, single dose 500 mg", "value": 1}, {"measurement": "Intensity (Mild / Moderate / Severe / Lethal)", "setting": "[2]; [13]", "value": "Mild"}, {"measurement": "Predictability (Expected / Not Expected)", "setting": "[2]; [13]", "value": "Not Expected"}, {"measurement": "Events count", "setting": "[2]; Adverse event: Fastting Glucose Increased, 37 healthy volunteers, single dose 500 mg", "value": 3}, {"measurement": "Intensity (Mild / Moderate / Severe / Lethal)", "setting": "[2]; [14]", "value": "Mild"}, {"measurement": "Predictability (Expected / Not Expected)", "setting": "[2]; [14]", "value": "Not Expected"}, {"measurement": "Events count", "setting": "[2]; Adverse event: Increased Total Bilirubin and Fractions, 37 healthy volunteers, single dose 500 mg", "value": 1}, {"measurement": "Intensity (Mild / Moderate / Severe / Lethal)", "setting": "[2]; Adverse event: Leukocyturia", "value": "Mild"}, {"measurement": "Predictability (Expected / Not Expected)", "setting": "[2]; Adverse event: Leukocyturia", "value": "Not Expected"}, {"measurement": "Events count", "setting": "[2]; Adverse event: Leukocyturia, 37 healthy volunteers, single dose 500 mg", "value": 1}, {"measurement": "Intensity (Mild / Moderate / Severe / Lethal)", "setting": "[2]; [15]", "value": "Mild"}, {"measurement": "Predictability (Expected / Not Expected)", "setting": "[2]; [15]", "value": "Not Expected"}, {"measurement": "Events count", "setting": "[2]; Adverse event: Total Cholesterol Increased, 37 healthy volunteers, single dose 500 mg", "value": 3}, {"measurement": "solubility", "setting": "[3]", "value": "poor solubility"}, {"measurement": "Biopharmaceutics Classification System class", "setting": "[3]; dissolution rate-dependent absorption", "value": "BCS class II"}]}]}
